[invAb] = inverted abasic unit; d = 2'-deoxy (DNA); m = 2'-O-methyl; r = 2'-OH (RNA); f = 2'-fluoro
Columns and labels:
ASK1 mRNA [1] = assay: ASK1 mRNA knock-down by siNA in mouse Hepa1-6 cells (RNAiMax transfection, Taqman RT-PCR); type: cell-based; conditions: 10 nM siNA, 24 hrs post-transfection, vs non-targeting control, GAPDH-normalized, mean ± S.D., two experiments
Experimental: Hepal-6 (murine; ATCC cat #CRL-1830): Cells were cultured at 37° C. in the presence of 5% CO2 and grown in Dulbecco's modified Eagle's medium (DMEM) with 4 mM L-glutamine adjusted to contain 1.5 g/L sodium bicarbonate and 4.5 g/L glucose and supplemented with 10% of fetal bovine serum, 100 μg/mL of streptomycin, and 100 U/mL penicillin.
(§1) Cells were plated in all wells of a tissue-culture treated, 96-well plate at a final count of 5000 cells/well (A549 cell line) and 3,500 cells/well (Hepal-6 cell line) in 100 μL of the appropriate culture media. The cells were cultured for 24 hours after plating at 37° C. in the presence of 5% CO2.
(§2) After 24 hours, complexes containing siNA and RNAiMax were created as follows: A solution of RNAiMax diluted 33-fold in OPTI-MEM was prepared. In parallel, solutions of the siNAs for testing were prepared to a final concentration of 120 nM in OPTI-MEM. After incubation of RNAiMax/OPTI-MEM solution at room temperature for 5 min, an equal volume of the siRNA solution and the RNAiMax solution were added together for each of the siNAs.
(§3) This solution was incubated at room temperature for 20 minutes. After incubation, 20 uL of the solution was added to each of the relevant wells. The final concentration of siNA in each well was 10 nM and the final volume of RNAiMax in each well was 0.3 ul.
(§4) The time of incubation with the RNAiMax-siNA complexes was 24 hours and there was no change in media between transfection and harvesting, unless otherwise indicated.
(§5) RNA was extracted from a 96-well plate using the TaqMan® Gene Expression Cells-to-CT™ Kit (Cat #4399002) with a modified protocol. Briefly, a 60 uL (1 plate) or 110 uL (2 plates) of the Lysis Solution with DNase I was dispensed into each well of the Lysis Buffer Plate (twin.tec full skirt plate). The lysis buffer and stop plates were stored at 4° C. until the cells were washed.
(§6) The plate was spun at 1100 rpm for 5 minutes. The culture medium was aspirated and discarded from the wells of the culture plate. The lysis was performed automatically using a BioMek FX instrument and method. After the Biomek method was completed, the lysis plate was incubated for 2 min. at room temperature. The lysis plate can be stored for 2 hours at 4° C., or at −20° C. or −80° C. for two months.
(§7) Each well of the reverse transcription plate required 10 uL of 2× reverse transcriptase Buffer, 1 uL of 20× reverse transcription enzyme and 2 uL of nuclease-free water. The reverse transcription master mix was prepared by mixing 2× reverse transcription buffer, 20× reverse transcription enzyme mix, and nuclease-free water. 13 uL of the reverse transcription master mix was dispensed into each well of the reverse transcription plate (semi-skirted). A separate reverse transcription plate was prepared for each cell plate. The plate was loaded onto a Biomek NX or Biomek FX Dual-96 and the Biomek method was run. The program is programmed to automatically added 7 uL of lysate from the cell lysis procedure described above into each well of the reverse transcription plate. The plate is sealed and spun on a centrifuge (1000 rpm for 30 seconds) to settle the contents to the bottom of the reverse transcription plate. The plate is placed in a thermocycler at 37° C. for 60 min, 95° C. for 5 min, and 4° C. until the plate is removed from the thermocycler. Upon removal, if not used immediately, the plate was frozen at −20° C.
(§8) A series of probes and primers were used to detect the various mRNA transcripts of the genes of ASK1, ASK2, and GAPDH in human cell lines and ASK1 and GAPDH in mouse cell lines. All Taqman probes and primers for the experiments were supplied as pre-validated sets by ABI (see Table 2).
(§9) The assays were performed on an ABI 7900 instrument, according to the manufacturer's instructions. A TaqMan Gene Expression Master Mix (provided in the Cells-to-CT™, Applied Biosystems, Cat #4399002) was used. […]

ASK1 mRNA [2] = assay: ASK1 mRNA knock-down by siNA in human A549 cells (RNAiMax transfection, Taqman RT-PCR); type: cell-based; conditions: 10 nM siNA, 24 hrs post-transfection, vs non-targeting control, GAPDH-normalized, mean ± S.D., two experiments
Experimental: A549 (human; ATCC cat #CCL-185): Cells were cultured at 37° C. in the presence of 5% CO2 and grown in Ham's F12K medium with 2 mM L-glutamine adjusted to contain 1.5 g/L sodium bicarbonate and supplemented with fetal bovine serum at a final concentration of 10%, 100 μg/mL of streptomycin, and 100 U/mL penicillin.
as §1, §2, §3, §4, §5, §6, §7, §8, §9

Substance	% KD Mouse (ASK1 mRNA [1]) [%]	% KD Human (ASK1 mRNA [2]) [%]
25374-DC: siNA duplex, sense B GcAcuGGGAAcuAcAccuu TTB, antisense AAGGuGuAGuucccAGuGcUU (SEQ ID NO: 29/30), human ASK1 target site 978 (sense GCACUGGGAACUACACCUUTT; antisense AAGGUGUAGUUCCCAGUGCUU; chemistry not fully specified)	43 ± 12	19 ± 4
25375-DC: siNA duplex, sense B GGAuGAAAAuAGAAAccAA TTB, antisense UUGGuuucuAuuuucAuccUU (SEQ ID NO: 31/32), human ASK1 target site 4101 (sense GGAUGAAAAUAGAAACCAATT; antisense UUGGUUUCUAUUUUCAUCCUU; chemistry not fully specified)	6 ± 13	76 ± 6
25377-DC: siNA duplex, sense B GGAAGAccAAGAcAAAAuu TTB, antisense AAUuuuGucuuGGucuuccUU (SEQ ID NO: 35/36), human ASK1 target site 3538 (sense GGAAGACCAAGACAAAAUUTT; antisense AAUUUUGUCUUGGUCUUCCUU; chemistry not fully specified)	10 ± 2	80 ± 3
25378-DC: siNA duplex, sense B cGGAAGAccAAGAcAAAAu TTB, antisense AUUuuGucuuGGucuuccGUU (SEQ ID NO: 37/38), human ASK1 target site 3537 (sense CGGAAGACCAAGACAAAAUTT; antisense AUUUUGUCUUGGUCUUCCGUU; chemistry not fully specified)	34 ± 2	79 ± 5
25380-DC: siNA duplex, sense B GAuGGAAAuucuAAAAAuu TTB, antisense AAUuuuuAGAAuuuccAuCUU (SEQ ID NO: 41/42), human ASK1 target site 4508 (sense GAUGGAAAUUCUAAAAAUUTT; antisense AAUUUUUAGAAUUUCCAUCUU; chemistry not fully specified)	−7 ± 11	91 ± 0
25381-DC: siNA duplex, sense B GcGAGGcccuGcAGAGcuu TTB, antisense AAGcucuGcAGGGccucGcUU (SEQ ID NO: 43/44), human ASK1 target site 690 (sense GCGAGGCCCUGCAGAGCUUTT; antisense AAGCUCUGCAGGGCCUCGCUU; chemistry not fully specified)	45 ± 2	70 ± 2
25382-DC: siNA duplex, sense B ccAGAAcuAAGGccAcAuu TTB, antisense AAUGuGGccuuAGuucuGGUU (SEQ ID NO: 45/46), human ASK1 target site 3875 (sense CCAGAACUAAGGCCACAUUTT; antisense AAUGUGGCCUUAGUUCUGGUU; chemistry not fully specified)	−26 ± 10	20 ± 4
25383-DC: siNA duplex, sense B cuGcuGAucAAGAAGAcuu TTB, antisense AAGUCuucuuGAucAGcAGUU (SEQ ID NO: 47/48), human ASK1 target site 3918 (sense CUGCUGAUCAAGAAGACUUTT; antisense AAGUCUUCUUGAUCAGCAGUU; chemistry not fully specified)	1 ± 3	68 ± 7
25384-DC: siNA duplex, sense B GGAAcAGccuucAAAucAA TTB, antisense UUGAuuuGAAGGcuGuuccUU (SEQ ID NO: 49/50), human ASK1 target site 3958 (sense GGAACAGCCUUCAAAUCAATT; antisense UUGAUUUGAAGGCUGUUCCUU; chemistry not fully specified)	61 ± 0	82 ± 1
25386-DC: siNA duplex, sense B GAGcAAccAAGucAGAAuu TTB, antisense AAUucuGacuuGGuuGcucUU (SEQ ID NO: 53/54), human ASK1 target site 2461 (sense GAGCAACCAAGUCAGAAUUTT; antisense AAUUCUGACUUGGUUGCUCUU; inverted abasic end caps, TT overhang, chemistry not fully specified)	53 ± 1	80 ± 1
25388-DC: siNA duplex, sense B GGuAGAGAcuuuAGAAAAA TTB, antisense UUUuucuAAAGucucuAccUU (SEQ ID NO: 57/58), human ASK1 target site 1360 (sense GGUAGAGACUUUAGAAAAATT; antisense UUUUUCUAAAGUCUCUACCUU; sense: sugars from the 5' end d2 f1 d5 f4 d9, [invAb] at 5' end, 3' end, backbone not given here; antisense: sugars from the 5' end rrrffffmmmmfffffmffmm, backbone not given here)	32 ± 5	89 ± 4
25390-DC: siNA duplex, sense B GGcuGAAGAuuAuAcAcuA TTB, antisense UAGuGuAuAAucuucAGccUU (SEQ ID NO: 61/62), human ASK1 target site 4354 (sense GGCUGAAGAUUAUACACUATT; antisense UAGUGUAUAAUCUUCAGCCUU; chemistry not fully specified)	−18 ± 14	93 ± 1
25391-DC: siNA duplex, sense B cAGAGGccAAGGcAuucAu TTB, antisense AUGAAuGccuuGGccucuGUU (SEQ ID NO: 63/64), human ASK1 target site 3087 (sense CAGAGGCCAAGGCAUUCAUTT; antisense AUGAAUGCCUUGGCCUCUGUU; chemistry not fully specified)	−3 ± 4	11 ± 38
25392-DC: siNA duplex, sense B cAcuGAccGAAAAAucAuA TTB, antisense UAUGAuuuuucGGucAGuGUU (SEQ ID NO: 65/66), human ASK1 target site 3661 (sense CACUGACCGAAAAAUCAUATT; antisense UAUGAUUUUUCGGUCAGUGUU; chemistry not fully specified)	63 ± 1	67 ± 6
25393-DC: siNA duplex, sense B GGuucAAAAAGGcAuuuGA TTB, antisense UCAAAuGccuuuuuGAAccUU (SEQ ID NO: 67/68), human ASK1 target site 1614 (sense GGUUCAAAAAGGCAUUUGATT; antisense UCAAAUGCCUUUUUGAACCUU; chemistry not fully specified)	77 ± 2	88 ± 5
25394-DC: siNA duplex, sense B uucGGAAucAuAAcAucAA TTB, antisense UUGAuGuuAuGAuuccGAAUU (SEQ ID NO: 69/70), human ASK1 target site 3786 (sense UUCGGAAUCAUAACAUCAATT; antisense UUGAUGUUAUGAUUCCGAAUU; chemistry not fully specified)	60 ± 6	76 ± 8

From patent US20120010272A1, “RNA Interference Mediated Inhibition of Apoptosis Signal-Regulating Kinase 1 (ASK1) Gene Expression Using Short Interfering Nucleic Acid (siNA)” (Merck Sharp & Dohme Corp., priority 2009, published 2012)
